Reference: US20210255193A1, “LYSINE REACTIVE PROBES AND USES THEREOF” (The Scripps Research Institute, priority 2017, published 2021)

How the values were obtained:
Assay in all cases: direct labeling of recombinantly expressed proteins by gel-based ABPP (WT vs lysine mutant)
Format in all cases: binding
[1] = molecular target: T1, G6PD (Homo sapiens, UniProt P11413); conditions: G6PD K171, KR mutant; 10 μM probe, 1 h
T1 construct: expressed in transfected cells; host or cells: HEK 293T

[2] = molecular target: T2, FAH (Homo sapiens, UniProt P16930); conditions: FAH K241, KR mutant; 10 μM probe, 1 h
T2 construct: expressed in transfected cells; host or cells: HEK 293T
T2 sequence (P16930 1-419): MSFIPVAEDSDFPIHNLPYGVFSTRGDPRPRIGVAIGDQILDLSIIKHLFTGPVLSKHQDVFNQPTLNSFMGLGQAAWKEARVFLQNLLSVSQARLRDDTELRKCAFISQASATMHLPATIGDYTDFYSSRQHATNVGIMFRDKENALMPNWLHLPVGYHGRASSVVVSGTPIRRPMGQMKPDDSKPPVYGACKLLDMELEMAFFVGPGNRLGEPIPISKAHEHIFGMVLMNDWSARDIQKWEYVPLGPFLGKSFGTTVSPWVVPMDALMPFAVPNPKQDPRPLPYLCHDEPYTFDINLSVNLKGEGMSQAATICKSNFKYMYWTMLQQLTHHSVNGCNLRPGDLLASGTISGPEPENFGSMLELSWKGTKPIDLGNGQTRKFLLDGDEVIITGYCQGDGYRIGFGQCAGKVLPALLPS

[3] = molecular target: T3, PFKL (Homo sapiens, UniProt P17858); conditions: PFKL K676, KA mutant; 10 μM probe, 1 h
T3 construct: expressed in transfected cells; host or cells: HEK 293T
T3 sequence (P17858 1-780): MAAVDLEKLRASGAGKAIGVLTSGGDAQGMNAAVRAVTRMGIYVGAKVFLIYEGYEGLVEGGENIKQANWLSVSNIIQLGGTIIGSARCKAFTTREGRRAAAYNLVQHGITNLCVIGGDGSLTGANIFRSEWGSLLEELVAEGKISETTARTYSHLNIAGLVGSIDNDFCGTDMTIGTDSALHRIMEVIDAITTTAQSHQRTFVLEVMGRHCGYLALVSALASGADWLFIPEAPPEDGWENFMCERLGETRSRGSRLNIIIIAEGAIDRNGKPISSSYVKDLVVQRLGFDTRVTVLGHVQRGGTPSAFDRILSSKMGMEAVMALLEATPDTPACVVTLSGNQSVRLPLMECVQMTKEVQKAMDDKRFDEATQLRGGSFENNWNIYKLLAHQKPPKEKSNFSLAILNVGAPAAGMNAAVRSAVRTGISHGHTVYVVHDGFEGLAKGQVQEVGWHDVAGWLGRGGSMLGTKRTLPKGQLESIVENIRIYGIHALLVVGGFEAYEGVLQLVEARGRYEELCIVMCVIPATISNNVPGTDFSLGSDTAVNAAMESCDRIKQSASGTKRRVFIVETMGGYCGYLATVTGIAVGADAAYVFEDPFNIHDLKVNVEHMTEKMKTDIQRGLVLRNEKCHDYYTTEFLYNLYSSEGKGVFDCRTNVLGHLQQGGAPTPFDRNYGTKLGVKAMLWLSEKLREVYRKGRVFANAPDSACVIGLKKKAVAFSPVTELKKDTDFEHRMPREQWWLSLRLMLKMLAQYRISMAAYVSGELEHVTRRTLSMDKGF

T1 sequence (P11413 whole entry): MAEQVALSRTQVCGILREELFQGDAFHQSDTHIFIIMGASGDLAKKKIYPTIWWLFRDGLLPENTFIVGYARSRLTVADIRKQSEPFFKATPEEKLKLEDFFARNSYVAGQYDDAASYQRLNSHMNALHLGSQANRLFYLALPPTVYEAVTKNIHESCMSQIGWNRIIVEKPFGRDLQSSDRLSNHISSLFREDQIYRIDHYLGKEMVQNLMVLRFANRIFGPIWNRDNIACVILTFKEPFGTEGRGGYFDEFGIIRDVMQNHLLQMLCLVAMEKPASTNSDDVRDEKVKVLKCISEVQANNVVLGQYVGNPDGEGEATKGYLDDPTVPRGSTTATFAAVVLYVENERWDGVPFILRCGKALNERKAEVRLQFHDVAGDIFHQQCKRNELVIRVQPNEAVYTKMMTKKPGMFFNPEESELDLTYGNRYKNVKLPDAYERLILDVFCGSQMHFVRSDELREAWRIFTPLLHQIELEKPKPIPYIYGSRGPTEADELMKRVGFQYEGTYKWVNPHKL

SMILES	labeling of WT vs mutant protein by probe [1]	labeling of WT vs mutant protein by probe [2]	labeling of WT vs mutant protein by probe [3]
C#CCCC(=O)Oc1c(F)c(F)c(S(=O)(=O)[O-])c(F)c1F.[Na+] [probe 1, reference compound]	ND (the WT did not label more than the mutant (<2x difference quantified))	ND (the WT did not label more than the mutant (<2x difference quantified))	PD (the WT labeled more than the mutant (>2x difference quantified))
C#CCCC(=O)Oc1c(F)c(F)c(F)c(F)c1F [probe 6, Pentafluorophenyl 4-pentynoate]	ND (the WT did not label more than the mutant (<2x difference quantified))	–	–
C#Cc1ccc(C(=O)Oc2ccccc2[N+](=O)[O-])cc1 [probe 10, 2-Nitrophenyl 4-ethynylbenzoate]	–	–	PD (the WT labeled more than the mutant (>2x difference quantified))
C#Cc1ccc(C(=O)Oc2c(F)c(F)cc(F)c2F)cc1 [probe 12, 2,3,5,6-Tetrafluorophenyl 4-ethynylbenzoate]	ND (the WT did not label more than the mutant (<2x difference quantified))	PD (the WT labeled more than the mutant (>2x difference quantified))	PD (the WT labeled more than the mutant (>2x difference quantified))
C#Cc1ccc(C(=O)Oc2c(F)c(F)c(F)c(F)c2F)cc1 [probe 13, Pentafluorophenyl 4-ethynylbenzoate]	ND (the WT did not label more than the mutant (<2x difference quantified))	–	PD (the WT labeled more than the mutant (>2x difference quantified))
Cc1cc(C)n2c1C=C1C=CC(CCC(=O)Oc3c(F)c(F)c(S(=O)(=O)[O-])c(F)c3F)=[N+]1[B-]2(F)F.[Na+] [probe 18, reference compound]	NL (labelling of the WT protein was not detected by gel (intensity for WT less than 2x background))	PD (the WT labeled more than the mutant (>2x difference quantified))	PD (the WT labeled more than the mutant (>2x difference quantified))
